Target: TRKA (Homo sapiens (Human), UniProt P04629)
Assay: Isolated TRK enzyme assay (HTRF KinEASE-TK), TRKA
Format: biochemical
Settings: read-out: Trka enzyme (IC50)

TRKA, sequence (P04629 441-796): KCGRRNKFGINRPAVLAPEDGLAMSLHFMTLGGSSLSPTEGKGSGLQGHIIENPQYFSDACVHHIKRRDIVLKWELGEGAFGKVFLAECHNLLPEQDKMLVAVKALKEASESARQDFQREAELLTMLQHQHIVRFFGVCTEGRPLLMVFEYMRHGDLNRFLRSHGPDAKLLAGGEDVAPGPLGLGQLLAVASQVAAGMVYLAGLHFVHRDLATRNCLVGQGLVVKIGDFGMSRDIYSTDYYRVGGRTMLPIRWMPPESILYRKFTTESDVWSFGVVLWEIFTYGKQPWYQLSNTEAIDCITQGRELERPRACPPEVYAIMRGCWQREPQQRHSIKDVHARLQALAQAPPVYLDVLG

| SMILES | IC50 |
| --- | --- |
| CC(C(=O)N(C)C)n1cc(C(=O)c2cncc(NC(=O)Cc3ccc(Cl)cc3)c2)c2cncnc21 (racemic) [Example 230, 2-{5-[(5-{[(4-Chlorophenyl)acetyl]amino}pyridin-3-yl)carbonyl]-7H-pyrrolo[2,3-d]pyrimidin-7-yl}-N,N-dimethylpropanamide] | 63.7 nM |
| CC(CO)n1cc(C(=O)c2cncc(NC(=O)Cc3ccc(C#N)cc3)c2)c2cnc(N)nc21 (single isomer, unassigned) [Example 214, N-(5-{[2-amino-7-(2-hydroxy-1-methylethyl)-7H-pyrrolo[2,3-d]pyrimidin-5-yl]carbonyl}pyridin-3-yl)-2-(4-cyanophenyl)acetamide] | 65.9 nM |
| CC(C)n1cc(C(=O)c2cncc(NC(=O)Cc3ccc(C#N)c(C(F)(F)F)c3)c2)c2cncnc21 [Example 72, 2-[4-cyano-3-(trifluoromethyl)phenyl]-N-{5-[(7-isopropyl-7H-pyrrolo[2,3-d]pyrimidin-5-yl)carbonyl]pyridin-3-yl}acetamide] | 63.3 nM |
| CC(C)n1cc(C(=O)c2cncc(NC(=O)Cc3ccc(OC4CC4)cc3)c2)c2cncnc21 [Example 73, 2-[4-(cyclopropyloxy)phenyl]-N-{5-[(7-isopropyl-7H-pyrrolo[2,3-d]pyrimidin-5-yl)carbonyl]pyridin-3-yl}acetamide] | 283 nM |
| CC(C)n1cc(C(=O)c2cncc(NC(=O)Cc3cccc(OC4CC4)c3)c2)c2cncnc21 [Example 74, 2-[3-(cyclopropyloxy)phenyl]-N-{5-[(7-isopropyl-7H-pyrrolo[2,3-d]pyrimidin-5-yl)carbonyl]pyridin-3-yl}acetamide] | 1210 nM |
| CC(C)n1cc(C(=O)c2cncc(NC(=O)Cc3cccc(CO)c3)c2)c2cncnc21 [Example 75, 2-[3-(hydroxymethyl)phenyl]-N-{5-[(7-isopropyl-7H-pyrrolo[2,3-d]pyrimidin-5-yl)carbonyl]pyridin-3-yl}acetamide] | 567 nM |
| CC(C)n1cc(C(=O)c2cncc(NC(=O)Cc3ccc(C#N)c(F)c3)c2)c2cncnc21 [Example 76, 2-(4-cyano-3-fluorophenyl)-N-{5-[(7-isopropyl-7H-pyrrolo[2,3-d]pyrimidin-5-yl)carbonyl]pyridin-3-yl}acetamide] | 173 nM |
| COc1cc(CC(=O)Nc2cncc(C(=O)c3cn(C(C)C)c4ncncc34)c2)ccc1C#N [Example 77, 2-(4-cyano-3-methoxyphenyl)-N-{5-[(7-isopropyl-7H-pyrrolo[2,3-d]pyrimidin-5-yl)carbonyl]pyridin-3-yl}acetamide] | 64.3 nM |
| CC(C)n1cc(C(=O)c2cncc(NC(=O)CN3Cc4ccc(F)cc4C3=O)c2)c2cncnc21 [Example 78, 2-(6-fluoro-1-oxo-1,3-dihydro-2H-isoindol-2-yl)-N-{5-[(7-isopropyl-7H-pyrrolo[2,3-d]pyrimidin-5-yl)carbonyl]pyridin-3-yl}acetamide] | 203 nM |
| CC(C)n1cc(C(=O)c2cncc(NC(=O)Cn3ccc(-c4ccccn4)n3)c2)c2cncnc21 [Example 79, N-{5-[(7-isopropyl-7H-pyrrolo[2,3-d]pyrimidin-5-yl)carbonyl]pyridin-3-yl}-2-(3-pyridin-2-yl-1H-pyrazol-1-yl)acetamide] | 1580 nM |
| CC(C)n1cc(C(=O)c2cncc(NC(=O)Cc3ccc4[nH]cnc4c3)c2)c2cncnc21 [Example 80, 2-(1H-benzimidazol-5-yl)-N-{5-[(7-isopropyl-7H-pyrrolo[2,3-d]pyrimidin-5-yl)carbonyl]pyridin-3-yl}acetamide] | 392 nM |
| CC(C)n1cc(C(=O)c2cncc(NC(=O)Cc3ccc4nccnc4c3)c2)c2cncnc21 [Example 81, N-{5-[(7-isopropyl-7H-pyrrolo[2,3-d]pyrimidin-5-yl)carbonyl]pyridin-3-yl}-2-quinoxalin-6-ylacetamide] | 197 nM |
| CC(C)n1cc(C(=O)c2cncc(NC(=O)Cc3cnc4cccnc4c3)c2)c2cncnc21 [Example 82, N-{5-[(7-isopropyl-7H-pyrrolo[2,3-d]pyrimidin-5-yl)carbonyl]pyridin-3-yl}-2-(1,5-naphthyridin-3-yl)acetamide] | 908 nM |
| CC(C)n1cc(C(=O)c2cncc(NC(=O)Cc3ccc4onc(N)c4c3)c2)c2cncnc21 [Example 83, 2-(3-amino-1,2-benzisoxazol-5-yl)-N-{5-[(7-isopropyl-7H-pyrrolo[2,3-d]pyrimidin-5-yl)carbonyl]pyridin-3-yl}acetamide] | 355 nM |
| CC(C)n1cc(C(=O)c2cncc(NC(=O)Cc3ccc4[nH]c(C(F)(F)F)nc4c3)c2)c2cncnc21 [Example 84, N-{5-[(7-isopropyl-7H-pyrrolo[2,3-d]pyrimidin-5-yl)carbonyl]pyridin-3-yl}-2-[2-(trifluoromethyl)-1H-benzimidazol-5-yl]acetamide] | 2860 nM |
| CC(C)n1cc(C(=O)c2cncc(NC(=O)Cc3ccn4ccnc4c3)c2)c2cncnc21 [Example 85, 2-imidazo[1,2-a]pyridin-7-yl-N-{5-[(7-isopropyl-7H-pyrrolo[2,3-d]pyrimidin-5-yl)carbonyl]pyridin-3-yl}acetamide] | 70.8 nM |
| CC(C)n1cc(C(=O)c2cncc(NC(=O)Cn3ncc4ncccc43)c2)c2cncnc21 [Example 86, N-{5-[(7-isopropyl-7H-pyrrolo[2,3-d]pyrimidin-5-yl)carbonyl]pyridin-3-yl}-2-(1H-pyrazolo[4,3-b]pyridin-1-yl)acetamide] | 95.5 nM |
| CC(C)n1cc(C(=O)c2cncc(NC(=O)Cc3cccc(S(C)(=O)=O)c3)c2)c2cncnc21 [Example 87, N-{5-[(7-isopropyl-7H-pyrrolo[2,3-d]pyrimidin-5-yl)carbonyl]pyridin-3-yl}-2-[3-(methylsulfonyl)phenyl]acetamide] | 63.2 nM |

Compounds with a lower IC50, results first:

| IC50 | SMILES |
| --- | --- |
| 34.9 nM | CC(CO)n1cc(C(=O)c2cncc(NC(=O)Cc3ccc4cccnc4c3)c2)c2cnc(N)nc21 (single isomer, unassigned) [Example 211, N-(5-{[2-amino-7-(2-hydroxy-1-methylethyl)-7H-pyrrolo[2,3-d]pyrimidin-5-yl]carbonyl}pyridin-3-yl)-2-quinolin-7-ylacetamide] |
| 59 nM | CC(CO)n1cc(C(=O)c2cncc(NC(=O)Cc3ccc(C#N)cc3)c2)c2cnc(N)nc21 (single isomer, unassigned) [Example 212, N-(5-{[2-amino-7-(2-hydroxy-1-methylethyl)-7H-pyrrolo[2,3-d]pyrimidin-5-yl]carbonyl}pyridin-3-yl)-2-(4-cyanophenyl)acetamide] |
| 3.03 nM | CC(CO)n1cc(C(=O)c2cncc(NC(=O)Cc3cccc(C(F)(F)F)c3)c2)c2cnc(N)nc21 (single isomer, unassigned) [Example 213, N-(5-{[2-amino-7-(2-hydroxy-1-methylethyl)-7H-pyrrolo[2,3-d]pyrimidin-5-yl]carbonyl}pyridin-3-yl)-2-[3-(trifluoromethyl)phenyl]acetamide] |
| 4.4 nM | CC(CO)n1cc(C(=O)c2cncc(NC(=O)Cc3cccc(C(F)(F)F)c3)c2)c2cnc(N)nc21 (single isomer, unassigned) [Example 215, N-(5-{[2-amino-7-(2-hydroxy-1-methylethyl)-7H-pyrrolo[2,3-d]pyrimidin-5-yl]carbonyl}pyridin-3-yl)-2-[3-(trifluoromethyl)phenyl]acetamide] |
| 31.6 nM | CC(CO)n1cc(C(=O)c2cncc(NC(=O)Cc3ccc4cccnc4c3)c2)c2cnc(N)nc21 (single isomer, unassigned) [Example 216, N-(5-{[2-amino-7-(2-hydroxy-1-methylethyl)-7H-pyrrolo[2,3-d]pyrimidin-5-yl]carbonyl}pyridin-3-yl)-2-quinolin-7-ylacetamide] |
| 55.6 nM | CC(C)n1cc(C(=O)c2cncc(NC(=O)Cc3ccc(F)cc3)c2)c2cncnc21 [Example 65, 2-(4-fluorophenyl)-N-{5-[(7-isopropyl-7H-pyrrolo[2,3-d]pyrimidin-5-yl)carbonyl]pyridin-3-yl}acetamide] |
| 3.55 nM | CC(C)n1cc(C(=O)c2cncc(NC(=O)Cc3cccc(C(F)(F)F)c3)c2)c2cncnc21 [Example 66, N-{5-[(7-isopropyl-7H-pyrrolo[2,3-d]pyrimidin-5-yl)carbonyl]pyridin-3-yl}-2-[3-(trifluoromethyl)phenyl]acetamide] |
| 4.15 nM | CC(C)n1cc(C(=O)c2cncc(NC(=O)Cc3ccc(C(F)(F)F)cc3)c2)c2cncnc21 [Example 67, N-{5-[(7-isopropyl-7H-pyrrolo[2,3-d]pyrimidin-5-yl)carbonyl]pyridin-3-yl}-2-[4-(trifluoromethyl)phenyl]acetamide] |
| 12.1 nM | CC(C)n1cc(C(=O)c2cncc(NC(=O)Cc3ccc(Cl)c(Cl)c3)c2)c2cncnc21 [Example 68, 2-(3,4-dichlorophenyl)-N-{5-[(7-isopropyl-7H-pyrrolo[2,3-d]pyrimidin-5-yl)carbonyl]pyridin-3-yl}acetamide] |
| 10.9 nM | CC(C)n1cc(C(=O)c2cncc(NC(=O)Cc3ccc(Cl)cc3)c2)c2cncnc21 [Example 69, 2-(4-chlorophenyl)-N-{5-[(7-isopropyl-7H-pyrrolo[2,3-d]pyrimidin-5-yl)carbonyl]pyridin-3-yl}acetamide] |
| 22.8 nM | CC(C)n1cc(C(=O)c2cncc(NC(=O)Cc3ccccc3OC3CC3)c2)c2cncnc21 [Example 70, 2-[2-(cyclopropyloxy)phenyl]-N-{5-[(7-isopropyl-7H-pyrrolo[2,3-d]pyrimidin-5-yl)carbonyl]pyridin-3-yl}acetamide] |
| 56.6 nM | CC(C)n1cc(C(=O)c2cncc(NC(=O)Cn3cc(C4CC4)nn3)c2)c2cncnc21 [Example 88, 2-(4-cyclopropyl-1H-1,2,3-triazol-1-yl)-N-{5-[(7-isopropyl-7H-pyrrolo[2,3-d]pyrimidin-5-yl)carbonyl]pyridin-3-yl}acetamide] |
| 21.7 nM | CC(C)n1cc(C(=O)c2cncc(NC(=O)Cc3ccc4ocnc4c3)c2)c2cncnc21 [Example 89, 2-(1,3-benzoxazol-5-yl)-N-{5-[(7-isopropyl-7H-pyrrolo[2,3-d]pyrimidin-5-yl)carbonyl]pyridin-3-yl}acetamide] |
| 8.81 nM | CC(C)n1cc(C(=O)c2cncc(NC(=O)Cn3ccc(C4CC4)n3)c2)c2cncnc21 [Example 90, 2-(3-cyclopropyl-1H-pyrazol-1-yl)-N-{5-[(7-isopropyl-7H-pyrrolo[2,3-d]pyrimidin-5-yl)carbonyl]pyridin-3-yl}acetamide] |
